Measurements taken from ChEMBL document CHEMBL1144668, “Mono- and dialkyl isoprenoid bisphosphonates as geranylgeranyl diphosphate synthase inhibitors” (Bioorg Med Chem, 2008).
The source made the active and inactive calls. The rule behind the calls is not given here.

Tested on: K562
Assay: Inhibition of Ras farnesylation in human K562 cells after 24 hrs by Western blot
Format: functional, cell-based

| SMILES | Activity |
| --- | --- |
| CC(C)=CCCC(C)=CCC(CC=C(C)CCC=C(C)C)(P(=O)(O)O)P(=O)(O)O | inactive |
| CC(C)=CCC/C(C)=C\CC(C/C=C(\C)CCC=C(C)C)(P(=O)(O)O)P(=O)(O)O | inactive |
